Measured values: ChEMBL document CHEMBL1201862, “PubChem BioAssay data set” (2004)
Activity calls are given as the source filed them.

How the values were obtained:
Estrogen receptor = target: T1, Estrogen receptor (Homo sapiens, UniProt P03372);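 note: potency for inhibiting coactivator peptide recruitment to the receptor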
T1 sequence (P03372 whole entry): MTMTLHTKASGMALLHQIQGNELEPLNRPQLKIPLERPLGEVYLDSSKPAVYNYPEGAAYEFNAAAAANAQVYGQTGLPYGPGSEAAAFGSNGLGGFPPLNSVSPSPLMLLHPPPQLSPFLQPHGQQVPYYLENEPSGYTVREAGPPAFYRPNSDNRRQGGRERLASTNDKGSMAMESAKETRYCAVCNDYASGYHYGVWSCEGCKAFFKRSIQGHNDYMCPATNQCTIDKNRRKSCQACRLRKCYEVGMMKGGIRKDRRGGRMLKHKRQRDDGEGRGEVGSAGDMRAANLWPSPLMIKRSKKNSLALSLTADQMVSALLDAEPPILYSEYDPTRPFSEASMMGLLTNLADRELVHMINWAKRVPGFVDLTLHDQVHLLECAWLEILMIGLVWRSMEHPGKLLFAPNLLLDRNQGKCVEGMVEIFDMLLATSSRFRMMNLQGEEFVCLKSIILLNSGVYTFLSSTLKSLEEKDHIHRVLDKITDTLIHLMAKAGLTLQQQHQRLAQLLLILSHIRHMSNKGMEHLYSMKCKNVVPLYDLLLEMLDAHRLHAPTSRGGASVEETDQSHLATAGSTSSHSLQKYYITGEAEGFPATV

[1] = HEK-293T cell viability reduction – luminescence, B-cell screen hits, cytotoxicity control for BCR NF-kB inhibitor project, dose response (AID 489021); type: functional, cell-based;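 note: HEK-293T cells carrying an NF-kB luciferase reporter; cells exposed to compound for about 14 hours before viability readout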
[2] = blockade of melanocortin 4 receptor signaling – cell-based, plate reader, cherry pick, counter-screen for LGR2 antagonist project, dose response (AID 743444); type: functional;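 note: transfected HEK 293 cells stimulated with alpha-MSH peptide; potency of inhibitors of the alpha-MSH evoked signal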
[3] = toxicity toward HepG2 liver cells – cell-based, plate reader, cherry-pick, antagonist series, cytotoxicity control, dose response (AID 743416); type: functional
[4] = blockers of bursicon-stimulated LGR2 cAMP reporter – cell-based, HEK293, CRE-luciferase reporter, cherry pick, set 2, dose response (AID 743343); type: functional;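 note: transfected cells were stimulated with diluted bursicon conditioned medium after compound addition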
Genome polyprotein = Genome polyprotein (dengue virus type 2, UniProt P29990); experiment: flavivirus cap methylation enzyme inhibition – biochemical, confirmation dose response, primary screen (AID 588689); type: functional
Sequence of Genome polyprotein (P29990 2492-3391 limits assumed): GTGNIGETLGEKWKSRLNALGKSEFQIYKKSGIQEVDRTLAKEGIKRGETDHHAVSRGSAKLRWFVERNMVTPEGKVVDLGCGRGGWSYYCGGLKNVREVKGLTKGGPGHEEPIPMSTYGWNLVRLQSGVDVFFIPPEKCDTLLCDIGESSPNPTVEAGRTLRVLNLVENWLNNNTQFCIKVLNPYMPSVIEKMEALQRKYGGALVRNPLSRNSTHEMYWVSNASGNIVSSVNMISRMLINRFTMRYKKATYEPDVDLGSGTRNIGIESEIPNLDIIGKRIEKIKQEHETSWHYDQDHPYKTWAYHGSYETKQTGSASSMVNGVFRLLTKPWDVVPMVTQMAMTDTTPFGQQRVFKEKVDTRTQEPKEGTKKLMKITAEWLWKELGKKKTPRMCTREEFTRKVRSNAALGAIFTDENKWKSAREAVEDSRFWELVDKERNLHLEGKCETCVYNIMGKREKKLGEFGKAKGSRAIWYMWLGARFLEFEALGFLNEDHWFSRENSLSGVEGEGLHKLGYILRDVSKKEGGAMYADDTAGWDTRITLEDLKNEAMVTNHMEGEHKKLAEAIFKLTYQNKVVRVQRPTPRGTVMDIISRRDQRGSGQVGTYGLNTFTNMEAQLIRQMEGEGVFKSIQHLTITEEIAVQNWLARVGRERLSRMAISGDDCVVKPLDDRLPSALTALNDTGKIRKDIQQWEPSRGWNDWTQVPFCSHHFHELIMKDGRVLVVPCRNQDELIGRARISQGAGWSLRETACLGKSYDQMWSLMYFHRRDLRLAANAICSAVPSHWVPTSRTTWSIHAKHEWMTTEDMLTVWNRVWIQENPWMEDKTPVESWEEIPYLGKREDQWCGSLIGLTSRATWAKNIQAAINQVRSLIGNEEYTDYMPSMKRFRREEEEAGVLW

[5] = target: Voltage-dependent T-type calcium channel subunit alpha-1H (Homo sapiens, UniProt O95180); type: functional;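 note: channel activity triggered by adding a high calcium stimulation buffer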
Cytochrome P450 2C19 = Cytochrome P450 2C19 (Homo sapiens, UniProt P33261); experiment: Cytochrome panel assay with activity outcomes. Panel member name: p450-cyp2c19 Compounds with AC50 equal or less than 10 uM are considered active; type: functional; conditions: read-out: AC50
Sequence of Cytochrome P450 2C19 (P33261 whole entry): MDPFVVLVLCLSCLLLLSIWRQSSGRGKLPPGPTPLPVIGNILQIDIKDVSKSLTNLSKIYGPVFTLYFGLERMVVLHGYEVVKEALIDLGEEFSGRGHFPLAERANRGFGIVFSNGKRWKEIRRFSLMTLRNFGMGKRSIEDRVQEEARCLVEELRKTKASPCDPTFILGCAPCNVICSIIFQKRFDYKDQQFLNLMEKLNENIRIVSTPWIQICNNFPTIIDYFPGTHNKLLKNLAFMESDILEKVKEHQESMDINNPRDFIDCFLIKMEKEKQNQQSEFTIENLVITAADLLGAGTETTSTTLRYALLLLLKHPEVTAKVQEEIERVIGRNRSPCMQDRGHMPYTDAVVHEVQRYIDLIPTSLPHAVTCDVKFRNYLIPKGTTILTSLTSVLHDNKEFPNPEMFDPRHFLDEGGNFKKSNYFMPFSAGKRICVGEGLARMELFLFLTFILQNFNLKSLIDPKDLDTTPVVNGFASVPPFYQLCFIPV

Cytochrome P450 2C9 = Cytochrome P450 2C9 (Homo sapiens, UniProt P11712)
Sequence of Cytochrome P450 2C9 (P11712 whole entry): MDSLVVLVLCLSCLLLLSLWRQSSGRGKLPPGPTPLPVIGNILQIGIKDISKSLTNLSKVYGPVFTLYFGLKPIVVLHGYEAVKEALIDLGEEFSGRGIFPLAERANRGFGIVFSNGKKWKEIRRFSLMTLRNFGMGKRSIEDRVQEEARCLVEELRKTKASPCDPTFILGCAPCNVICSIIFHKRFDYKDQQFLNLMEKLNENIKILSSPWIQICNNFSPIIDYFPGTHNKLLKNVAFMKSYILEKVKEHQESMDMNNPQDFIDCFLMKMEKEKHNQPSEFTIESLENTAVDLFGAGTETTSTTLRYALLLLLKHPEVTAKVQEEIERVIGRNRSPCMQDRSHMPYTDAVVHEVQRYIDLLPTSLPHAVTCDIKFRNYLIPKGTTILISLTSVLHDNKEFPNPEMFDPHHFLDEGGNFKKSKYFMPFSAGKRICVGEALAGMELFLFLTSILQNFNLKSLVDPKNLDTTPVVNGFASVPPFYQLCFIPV

[6] = target: E3 ubiquitin-protein ligase Mdm2 (Homo sapiens, UniProt Q00987); experiment: MDM2-luc reporter signal enhancers, multi-concentration potency testing, MDM2 ubiquitin-protein ligase inhibitor program, whole-cell format, luminescence detection, 384-well microplate (AID 1394); type: functional;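 note: MDM2 E3 inhibitors raise luminescence so EC50 is for signal enhancement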
Sequence of E3 ubiquitin-protein ligase Mdm2 (Q00987 whole entry): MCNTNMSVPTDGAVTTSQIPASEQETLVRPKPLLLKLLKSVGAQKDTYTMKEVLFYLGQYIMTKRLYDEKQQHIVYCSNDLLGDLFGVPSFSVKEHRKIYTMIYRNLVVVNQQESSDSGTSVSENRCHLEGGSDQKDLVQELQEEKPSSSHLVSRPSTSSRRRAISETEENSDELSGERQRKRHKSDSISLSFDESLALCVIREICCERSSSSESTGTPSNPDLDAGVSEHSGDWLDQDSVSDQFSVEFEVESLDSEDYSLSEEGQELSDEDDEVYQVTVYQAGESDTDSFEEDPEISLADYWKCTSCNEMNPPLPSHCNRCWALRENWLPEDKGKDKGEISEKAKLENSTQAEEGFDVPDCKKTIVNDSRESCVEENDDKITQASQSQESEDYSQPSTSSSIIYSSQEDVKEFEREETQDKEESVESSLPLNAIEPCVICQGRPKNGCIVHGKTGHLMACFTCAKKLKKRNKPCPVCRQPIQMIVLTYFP

[7] = target: Mitogen-activated protein kinase 10 (Homo sapiens, UniProt P53779); experiment: Dose response biochemical screening assay for inhibitors of c-Jun N-Terminal Kinase 3 (JNK3). [Related pubchem assays: 746 ]
Sequence of Mitogen-activated protein kinase 10 (P53779 whole entry): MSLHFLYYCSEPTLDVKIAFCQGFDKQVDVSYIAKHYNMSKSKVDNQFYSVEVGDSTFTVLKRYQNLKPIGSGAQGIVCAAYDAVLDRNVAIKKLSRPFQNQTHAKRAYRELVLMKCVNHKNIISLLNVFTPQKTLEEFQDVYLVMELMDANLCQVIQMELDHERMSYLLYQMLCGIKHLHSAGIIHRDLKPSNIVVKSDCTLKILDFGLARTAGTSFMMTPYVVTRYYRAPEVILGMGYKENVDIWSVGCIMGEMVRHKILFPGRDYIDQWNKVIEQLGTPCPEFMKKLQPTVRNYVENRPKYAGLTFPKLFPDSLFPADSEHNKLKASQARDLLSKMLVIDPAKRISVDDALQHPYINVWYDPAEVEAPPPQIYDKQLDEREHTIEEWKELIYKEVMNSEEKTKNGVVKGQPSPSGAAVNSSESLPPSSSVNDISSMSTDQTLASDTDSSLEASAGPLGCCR

Cytochrome P450 1A2 = target: T2, Cytochrome P450 1A2 (Homo sapiens, UniProt P05177);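 note: PubChem cytochrome P450 panel assay, CYP1A2 panel member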
T2 sequence (P05177 whole entry): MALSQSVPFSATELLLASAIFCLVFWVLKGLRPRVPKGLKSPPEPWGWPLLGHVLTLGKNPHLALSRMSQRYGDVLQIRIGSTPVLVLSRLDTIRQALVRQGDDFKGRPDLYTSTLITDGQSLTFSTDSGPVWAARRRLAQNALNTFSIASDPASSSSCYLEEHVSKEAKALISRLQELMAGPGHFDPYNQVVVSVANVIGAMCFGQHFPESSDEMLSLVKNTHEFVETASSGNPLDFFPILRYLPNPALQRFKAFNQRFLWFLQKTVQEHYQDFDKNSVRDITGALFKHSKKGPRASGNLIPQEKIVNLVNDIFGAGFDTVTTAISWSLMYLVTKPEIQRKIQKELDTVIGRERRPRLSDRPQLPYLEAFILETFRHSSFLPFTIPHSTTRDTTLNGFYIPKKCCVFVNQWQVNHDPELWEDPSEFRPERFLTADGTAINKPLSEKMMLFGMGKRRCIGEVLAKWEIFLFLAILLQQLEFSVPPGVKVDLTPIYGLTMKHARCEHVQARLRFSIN

[8] = reduced cellular PGC1a acetyl-lysine signal – cell-based, cherry-picked samples, dose response (AID 720514); type: functional;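 note: potency may reflect raised or lowered acetylation signal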
[9] = target: DNA dC->dU-editing enzyme APOBEC-3G (Homo sapiens, UniProt Q9HC16); experiment: Dose Response confirmation of small molecule APOBEC3G DNA Deaminase Inhibitors via a fluorescence-based single-stranded DNA deaminase assay. [Related pubchem assays (depositor defined):AID493012, AID493028]; type: functional
Sequence of DNA dC->dU-editing enzyme APOBEC-3G (Q9HC16 whole entry): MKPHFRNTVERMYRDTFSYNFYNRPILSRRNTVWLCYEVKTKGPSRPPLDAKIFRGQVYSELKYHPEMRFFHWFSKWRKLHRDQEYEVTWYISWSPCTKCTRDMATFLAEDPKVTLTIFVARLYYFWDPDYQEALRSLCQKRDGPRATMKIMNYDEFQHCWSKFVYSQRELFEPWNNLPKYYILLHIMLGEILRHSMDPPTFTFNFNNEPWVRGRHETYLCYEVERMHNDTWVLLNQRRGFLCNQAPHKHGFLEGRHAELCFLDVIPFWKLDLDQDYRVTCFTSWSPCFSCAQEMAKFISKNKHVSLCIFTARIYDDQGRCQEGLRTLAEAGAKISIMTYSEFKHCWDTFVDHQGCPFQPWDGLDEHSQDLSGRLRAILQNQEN

BJ [10] = experiment: BJ-TERT fibroblast viability loss – cell-based, RAS-independent, luminescence, dose response (AID 1933); type: functional; conditions: Homo sapiens
BJ [11] = experiment: cells; type: functional, cell-based; conditions: Homo sapiens
CAAX prenyl protease 2 = target: T3, CAAX prenyl protease 2 (Saccharomyces cerevisiae S288c, UniProt Q03530); type: biochemical
T3 sequence (Q03530 whole entry): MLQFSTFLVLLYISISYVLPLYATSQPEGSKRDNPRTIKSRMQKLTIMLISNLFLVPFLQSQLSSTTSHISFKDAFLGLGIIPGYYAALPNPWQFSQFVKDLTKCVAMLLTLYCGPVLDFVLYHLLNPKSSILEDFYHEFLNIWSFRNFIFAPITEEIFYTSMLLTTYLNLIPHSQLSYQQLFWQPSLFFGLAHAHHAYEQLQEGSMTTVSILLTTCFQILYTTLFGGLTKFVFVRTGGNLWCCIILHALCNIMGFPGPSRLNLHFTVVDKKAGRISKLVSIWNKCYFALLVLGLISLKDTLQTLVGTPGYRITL

Trypsin = Trypsin (Sus scrofa, UniProt P00761); experiment: trypsin protease activity blockade – biochemical, quenched peptide fluorescence, cherry-pick, selectivity assay for Rce1 protease inhibitor project, dose response (AID 488789)
Sequence of Trypsin (P00761 whole entry): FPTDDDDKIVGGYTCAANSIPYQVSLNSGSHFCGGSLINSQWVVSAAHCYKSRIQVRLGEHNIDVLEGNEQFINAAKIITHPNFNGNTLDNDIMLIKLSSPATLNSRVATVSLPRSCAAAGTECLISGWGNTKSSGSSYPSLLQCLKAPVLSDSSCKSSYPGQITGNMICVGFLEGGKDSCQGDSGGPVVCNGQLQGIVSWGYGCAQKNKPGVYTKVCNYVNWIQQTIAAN

[12] = OVCAR-3 cell viability loss – plate reader, dry powder samples, PAX8 inhibitor project, dose response (AID 743044); type: functional, cell-based
Paired box protein Pax-8 = Paired box protein Pax-8 (Homo sapiens, UniProt Q06710); experiment: PAX8 transcriptional activity inhibition in RMG-I – RMG-I cells, luciferase, cherry-pick, dose response (AID 687027); type: functional, cell-based;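 note: luciferase reporter driven by Pax8 target thyroperoxidase promoter measured by SteadyGlo luminescence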
Sequence of Paired box protein Pax-8 (Q06710 whole entry): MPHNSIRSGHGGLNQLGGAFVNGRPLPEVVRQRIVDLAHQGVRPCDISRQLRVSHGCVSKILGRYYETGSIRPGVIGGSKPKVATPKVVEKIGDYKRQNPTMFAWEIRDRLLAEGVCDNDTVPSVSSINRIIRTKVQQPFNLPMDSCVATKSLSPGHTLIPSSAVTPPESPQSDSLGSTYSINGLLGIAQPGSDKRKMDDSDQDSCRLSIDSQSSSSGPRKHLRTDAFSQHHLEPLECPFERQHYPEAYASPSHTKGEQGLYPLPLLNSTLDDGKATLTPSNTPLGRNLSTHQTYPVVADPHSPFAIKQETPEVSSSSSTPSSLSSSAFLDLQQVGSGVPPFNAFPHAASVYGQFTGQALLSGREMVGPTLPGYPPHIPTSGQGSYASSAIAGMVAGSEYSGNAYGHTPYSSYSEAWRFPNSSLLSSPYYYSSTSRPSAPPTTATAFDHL

[13] = A2780 cell killing – plate reader, dry powder samples, cytotoxicity control, dose response (AID 743046); type: functional, cell-based
[14] = OVCAR8 cell viability loss – plate reader, dry powder samples, PAX8 project, dose response (AID 743197); type: functional, cell-based; conditions: OVCAR-8
[15] = THP-1 cell cytotoxicity, dose response, cytotoxicity control for non-replicating M. tuberculosis project (AID 489025); type: functional
[16] = growth inhibition of PfATP4-mutant resistant parasites – NITD609-resistant line, SYBR Green, dry powder, dose response (AID 1159571); type: functional, cell-based;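 note: parasites synchronized at ring stage by sorbitol before testing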
[17] = P. falciparum Dd2 growth inhibitors, dose response, SYBR Green, cherry-picked samples (AID 1159567); type: functional, cell-based
[18] = toxicity to human HepG2 hepatoma cells – cell-based, plate reader, dry powder samples, cytotoxicity control, dose response (AID 1159569); type: functional;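 note: inhibitor potency with signal falling toward the positive control level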
[19] = growth inhibition of yeast DHODH-expressing 3D7 parasites – SYBR Green, dry powder samples, dose response (AID 1159570); type: functional, cell-based;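 note: parasite growth measured after 72 hours of compound exposure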
[20] = Dd2 malaria parasite growth inhibition potency – SYBR Green, dry powder samples, dose response (AID 1159566); type: functional, cell-based;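 note: potency for growth inhibition with lower SYBR green DNA signal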

## COC(=O)c1ccc2c(=O)n(CCCCCC(=O)NCc3ccc4c(c3)OCO4)c(=O)[nH]c2c1
Estrogen receptor
  IC50: 14.8 µM (active)

## Cc1c(CCO)c(O)oc2nnc(-c3ccccc3)c1-2
[1]
  IC50: > 80 µM (inactive)

## Cc1ccc(-c2csc(Nc3ccccn3)n2)cc1
[2]
  AC50: 3.3 µM (active)
[3]
  AC50: > 52 µM (inactive)
[4]
  AC50: 2.74 µM (active)

## O=C1NN(c2ccccc2)C(=O)/C1=C\c1cccc(OC(=O)c2cccs2)c1
Genome polyprotein
  IC50: 21.2 µM (active)

## Cn1c(=O)cc(OCC(=O)N2CCC3(CC2)OCCO3)c2ccccc21
[1]
  IC50: > 80 µM (inactive)

## CC(NC(=O)CCSc1nc(-c2ccc3c(c2)OCO3)cc(C(F)(F)F)n1)c1ccccc1 (centres undefined)
[5]
  EC50: 7.03 µM (active)
Estrogen receptor
  IC50: > 50 µM (not active)
Cytochrome P450 2C19
  AC50: 0.398 µM (inconclusive)

## Brc1ccc2cccnc2c1
Cytochrome P450 2C9
  AC50: inconclusive
Cytochrome P450 2C19
  AC50: 0.316 µM (inconclusive)

## Cn1c(=O)n(C)c2cc(NC(=O)CSc3nnc(-c4ccccc4O)n3-c3ccccc3)ccc21
[1]
  IC50: > 80 µM (inactive)

## Cc1ccc(C(=O)NN2C(=O)/C(=C/c3cccn3C)SC2=S)cc1
[6]
  EC50: 0.09 µM (not active)

## CCOc1ccc(C2CC(=O)NC3=C2C(=O)CCC3)cc1 (centres undefined)
[7]
  IC50: > 93.1 µM (not active)

## Cc1ccc(/C=C2/C(=O)NC(=O)N(CC3CCCO3)C2=O)s1 (centres undefined)
Genome polyprotein
  IC50: > 100 µM (active)

## C=CCNc1nc(-c2cccc(OC)c2O)nc2ccccc12
Estrogen receptor
  IC50: > 50 µM (not active)

## CC1(C)CC2(CC(C)(C(=O)CSc3nc4ccccc4s3)OC2=O)C(=O)O1 (centres undefined)
Cytochrome P450 1A2
  AC50: 28.2 µM (inconclusive)
Cytochrome P450 2C9
  AC50: inconclusive
Cytochrome P450 2C19
  AC50: 8.91 µM (inconclusive)

## C#CCOc1c(Br)cc(/C=C2/C(=O)ON=C2C)cc1OC
Genome polyprotein
  IC50: > 100 µM (active)

## O=C(c1ccc(F)cc1)N(C(=O)c1ccc(F)cc1)c1ncccn1
[8]
  AC50: 25.9 µM (active)

## O=C(O)c1ccc2c(c1)C(=O)N(c1ccc(/C=C/C(=O)c3ccccc3)cc1)C2=O
Genome polyprotein
  IC50: 56.7 µM (active)

## CC(C)=C1SC(N2CCN(c3cccc(C(F)(F)F)c3)CC2)=NC1=O
[6]
  EC50: 18.7 µM (not active)

## CCOc1ccc(C(S)=NC2CCCCC2)cc1OC
[9]
  IC50: 64.7 µM (active)

## Cc1ccc(Nc2nc(N)nc(-c3oc4ccccc4c3C)n2)cc1
BJ [10]
  EC50: < 0.12 µM (active)
BJ [11]
  EC50: 0.228 µM (active)

## CCCN1Cc2cccc(C(=O)NCc3ccc4c(c3)OCO4)c2C1=O
[7]
  IC50: 31.8 µM (not active)

## Cc1cc(OCC(=O)N2CCC(C(=O)O)CC2)c2c(C)cc(=O)oc2c1
CAAX prenyl protease 2
  AC50: 15.6 µM (active)
Trypsin
  AC50: 21.7 µM (active)

## CC1(c2nnc(-c3cccc(Cl)c3)o2)CC(c2cccc(Cl)c2)=NO1 (centres undefined)
[1]
  IC50: > 80 µM (inactive)

## COc1ccc(S(=O)(=O)Nc2ccc3c(c2)C(=O)N([C@@H](C)CO)C[C@H](C)[C@@H](CN(C)Cc2ccc(C(F)(F)F)cc2)OCCCC[C@@H](C)O3)cc1
[12]
  AC50: 23 µM (active)
Paired box protein Pax-8
  AC50: 9.62 µM (active)
[13]
  AC50: 56.2 µM (active)
[14]
  AC50: 23.6 µM (active)

## C[C@H]1CCCCO[C@@H](CN(C)Cc2ccc(Cl)c(Cl)c2)[C@@H](C)CN([C@@H](C)CO)C(=O)c2cc(NC(=O)Nc3ccc(C(F)(F)F)cc3)ccc2O1
[12]
  AC50: 22.2 µM (active)
Paired box protein Pax-8
  AC50: 4.77 µM (active)
[13]
  AC50: 59.1 µM (active)
[14]
  AC50: > 70 µM (inactive)

## C[C@@H]1CN([C@H](C)CO)C(=O)c2cc(NC(=O)CCCCCC(=O)Nc3ccccc3N)ccc2O[C@@H](C)CCCCO[C@H]1CN(C)Cc1ccc(Cl)c(Cl)c1
Paired box protein Pax-8
  AC50: 12.2 µM (active)
[14]
  AC50: 65.4 µM (active)

## C[C@@H]1CCCCO[C@@H](CN(C)C(=O)c2ccccc2)[C@H](C)CN([C@H](C)CO)C(=O)c2cc(NC(=O)Nc3ccc(C(F)(F)F)cc3)ccc2O1
[12]
  AC50: 36.5 µM (active)
Paired box protein Pax-8
  AC50: 3.53 µM (active)
[14]
  AC50: > 70 µM (inactive)

## Cc1ccc(-c2ccc([C@H]3[C@@H](CO)N4CCCCN(C(=O)Nc5cccc(F)c5)C[C@H]34)cc2)cc1
[12]
  AC50: 37.5 µM (active)
Paired box protein Pax-8
  AC50: 21.7 µM (active)
[13]
  AC50: 39.1 µM (active)

## C/C(=N\CCCn1ccnc1)C1=C(O)c2ccccc2C1=O
[7]
  IC50: 35.7 µM (not active)

## Cn1cccc1/C=N\NC(=O)C1COc2ccccc2O1 (centres undefined)
[15]
  CC50: > 40 µM (active)

## COc1ccc2c3c(n(C)c2c1)[C@H](CO)N(C(=O)Nc1ccc(F)cc1)CC31CCN(Cc2cccnc2)CC1
[16]
  AC50: 2.03 µM (active)
[17]
  AC50: 3.02 µM (active)
[18]
  AC50: > 100 µM (inactive)
[19]
  AC50: 1.52 µM (active)
[20]
  AC50: 1.61 µM (active)

## CN(C)C(=O)c1ccc(-c2ccc([C@@H]3[C@@H]4CN(Cc5ccc6c(c5)OCO6)C[C@H]3N4)cc2)cc1
[16]
  AC50: 2.58 µM (active)
[17]
  AC50: 1.13 µM (active)
[18]
  AC50: 22.6 µM (active)
[19]
  AC50: 4.61 µM (active)
[20]
  AC50: 2.25 µM (active)
